Experimental data: patent US11857638B2, “Quinone-containing conjugates” (PROMEGA CORPORATION, priority 2018, dated 2024)

Tests used:
human diaphorase = human diaphorase (Homo sapiens, UniProt P15559); assay: Non-cellular reductive release of luciferin (luciferin detection reagent with reductase and NADH); type: biochemical; details: after 1 hour, FIG. 3
Source text: (§1) This property may provide an additional advantage in ADCs where it is critical that payload is not released outside of target cells. The observations are as follows. When D-luciferin is derivatized on the 6′ hydroxyl by addition of the TMQ linker, its activity as a substrate for luciferase is blocked (PBI-4312), but free D-luciferin that is fully active with luciferase is readily released
[drawing 143] from a luciferin-TMQ derivative when subjected to reducing conditions inside or outside of a cell. However, release of D-luciferin from a protein-TMQ-luciferin conjugate by an extracellular reductive mechanism was substantially diminished compared to luciferin-TMQ. In other words, the protein moiety of the conjugate stabilizes the luciferin payload against reductive release from the TMQ linker in a non-cellular environment. Non-cellular reducing conditions include an aqueous reducing agent solution (e.g. DTT) or a reductase reaction mixture (FIG. 3). This was true for two conjugates with a luciferin payload as well as a luciferin-TMQ conjugate with bovine serum albumin (BSA). Whereas the reaction conditions produced substantial amounts of light with PBI-4312 (>900,000 RLU after 1 hour), only minimal signals were produced from similar amounts of the protein conjugates (<800 RLUs after 1 hour). […]

luciferase = assay: Activity as a substrate for luciferase; type: biochemical; details: D-luciferin derivatized on the 6′ hydroxyl with TMQ linker
Source text: as §1

Sequence of human diaphorase (P15559 whole entry): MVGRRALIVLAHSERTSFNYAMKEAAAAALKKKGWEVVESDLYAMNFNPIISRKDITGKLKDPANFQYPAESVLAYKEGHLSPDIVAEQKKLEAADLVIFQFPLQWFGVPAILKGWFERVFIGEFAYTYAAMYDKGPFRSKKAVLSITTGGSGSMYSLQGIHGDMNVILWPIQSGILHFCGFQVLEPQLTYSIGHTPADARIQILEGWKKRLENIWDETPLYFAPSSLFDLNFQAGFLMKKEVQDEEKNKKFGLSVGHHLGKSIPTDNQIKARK

CC1=C(C)C(=O)C(C(C)(C)CC(=O)N(C)CCN(C)C(=O)Oc2ccc3nc(C4=N[C@@H](C(=O)O)CS4)sc3c2)=C(C)C1=O [PBI-4312]
light produced (luciferin luminescence) (human diaphorase): > 900,000 RLU
activity as a substrate for luciferase (luciferase): blocked
